In US20260130881A1, “SUSTAINED RELEASE DEVICE CONTENTS FOR TREATMENT OF PARKINSON'S DISEASE AND OTHER DISORDERS” (priority 2024, published 2026):

Conditions: human, in vivo

N[C@@H](Cc1ccc(O)c(O)c1)C(=O)O [levodopa]
AUC_0-6 h: 1423.0 ± 919.5 ng·h/mL
